Assay results: patent publication US20240226318A1, “ANTIBODY DRUG CONJUGATE TARGETING NECTIN 4 AND PREPARATION METHOD THEREFOR AND USE THEREOF” (JIANGSU MABWELL HEALTH PHARMACEUTICAL R&D CO., LTD., priority 2021, published 2024)

Legend:
MDA-MB-468 cells = test: In vivo efficacy, breast cancer animal model MDA-MB-468 (Group 4 Example 1); parameters: species or system Nude mice (BALB/cJGpt-Foxn1nu/Gpt); settings: MDA-MB-468 model; for TV(D0): D0 baseline; for PR (D21), partial tumor regression: 8 animals per group
Description: (§1) MIDA-MB-468 cells, i.e. human breast carcinoma cells (purchased from ATCC), NCI-H322 cells, i.e. lung cancer cells (purchased from ATCC), and T24/nectin-4, i.e. bladder cancer cells (available from the cell bank of the Chinese Academy of Science) were utilized respectively to inoculate Nude mice (BALB/cJGpt-Foxn1nu/Gpt, 4-5 weeks old) for establishing mouse models.
(§2) The antibody-drug conjugate 3d and the control drug PADCVE (Enfortumab Vedotin, purchased from Seattle Gentics) were grouped and studied (as shown in Table 9 below). The mice were intravenously injected (IV) in a volume of 10 mL/kg, respectively; and the mice of the vehicle group were intravenously injected the same volume of vehicle (physiological saline). Tumor volumes were measured 2 times per week, and the mice were weighed and the data was recorded.
(§3) When the experiment was finished, the experimental endpoint was reached, or if the tumor volume reached 1500 mm^3, the animals were sacrificed under CO2 anesthesia and the tumors were dissected and photographed.
(§4) The method for evaluating in vivo efficacy was the same as described in Section 3.3 in the Group 3 of Examples.
A mouse model was established using MDA-MB-468 cells and ADCs 3d and PADCVE were grouped and studied, as described in sections 4.1 and 4.2 in the present Group 4 of Examples.

NCI-H322 cells = test: In vivo efficacy, lung cancer animal model NCI-H322; parameters: species or system Nude mice (BALB/cJGpt-Foxn1nu/Gpt)
Description: as §1, §2, §3, §4
A mouse model was established using NCI-H322 cells and ADCs 3d and PADCVE were grouped and studied, as described in sections 4.1 and 4.2 in the present Group 4 of Examples.

T24/nectin-4 cells = test: In vivo efficacy, bladder cancer animal model T24/nectin-4; parameters: species or system Nude mice (BALB/cJGpt-Foxn1nu/Gpt); settings: T24/nectin-4 model; for Average weight (g) at the beginning / Average weight (g) at the end: mouse body weight
Description: as §1, §2, §3, §4
A mouse model was established using T24/nectin-4 cells and ADCs 3d and PADCVE were grouped and studied, as described in sections 4.1 and 4.2 in the present Group 4 of Examples.

[1] = target: T1, recombinant extra-cellular domain of human Nectin-4 protein (Homo sapiens, UniProt Q96NY8); test: BIAcore affinity for the antigen; type: binding; settings: human Nectin-4, pH 7.4
T1 construct: recombinant extra-cellular domain of human Nectin-4 protein; purchased Novoprotein Scientific Inc
T1 sequence (Q96NY8 32-349 limits assumed): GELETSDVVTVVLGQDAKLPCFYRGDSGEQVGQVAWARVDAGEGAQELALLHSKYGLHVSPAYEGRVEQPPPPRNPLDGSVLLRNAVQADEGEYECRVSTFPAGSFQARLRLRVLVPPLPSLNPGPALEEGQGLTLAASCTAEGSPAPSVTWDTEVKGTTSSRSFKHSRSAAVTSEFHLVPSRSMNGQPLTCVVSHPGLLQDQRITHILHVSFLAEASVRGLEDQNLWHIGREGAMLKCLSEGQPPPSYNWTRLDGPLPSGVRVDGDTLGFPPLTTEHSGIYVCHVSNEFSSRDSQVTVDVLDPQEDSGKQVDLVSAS
Method: Human Nectin-4 protein (purchased from Novoprotein Scientific Inc.) was subjected to buffer exchange with a desalting column using running reagent 1 (10 mM N-(2-hydroxyethyl)piperazine-N-2 sulfonic acid, 150 mM sodium chloride, 3 mM ethylene diamine tetraacetic acid, 0.005% Tween-20, with pH adjusted to 7.4). Samples to be detected were diluted to 5 μg/mL with the running reagent 1, and sequentially injected to the experimental channels with His capture chips at a flow rate of […] for about 400 RU. The capture of the ligand was not required for the reference channel. The human Nectin-4 protein was diluted to 50, 25, 12.5, 6.25, 3.125, 1.563, 0.781, 0.391, and 0 nM with the corresponding running reagent, and then the diluted human Nectin-4 protein was injected into the experimental channels and the reference channel at a flow rate of 30 μL/min. The association and dissociation time were 120 sec and 300 sec, respectively. The Biocore 8K analysis software was used to calculate KD values for each antibody. The reference channel was used for background subtraction.

FcRn [2] = target: T2, FcRn (Homo sapiens, UniProt P55899); test: BIAcore affinity for Fc receptor FcRn; type: binding; settings: pH 6.0
Method: (§5) Human FcγR I (CD64), FcγR IIa (CD32a (H167)), FcγR IIb (CD32b), and FcγR IIIa (CD16a (V176)) proteins were diluted to 0.25 μg/mL with running reagent 1 (10 mM N-(2-hydroxyethyl)piperazine-N-2 sulfonic acid, 150 mM sodium chloride, 3 mM ethylene diamine tetraacetic acid, 0.005% Tween-20, with pH adjusted to 7.4), and FcRn protein was diluted to 0.25 μg/mL with running reagent 2 (2 mM sodium dihydrogen phosphate, 10 mM disodium hydrogen phosphate, 137 mM sodium chloride, 2.7 mM potassium chloride, 0.05% tween-20, with pH adjusted to 6.0) and all the diluted proteins were sequentially injected to the experimental channels with His capture chips (FC2) at a flow rate of […] for about 40 RU. The capture of the ligands was not required for the reference channel (FC1). Samples to be detected were diluted with corresponding running reagents, and then were injected into the experimental channels and the reference channel at a flow rate of 30 μL/min. Association and dissociation was monitored for certain time periods. The Biocore 8K analysis software was used to calculate KD values for each antibody. The reference channel (FC1) was used for background subtraction.

human FcγR I (CD64) [3] = target: T3, human FcγR I (CD64) (Homo sapiens, UniProt P12314); test: BIAcore affinity for Fc receptor FcγRI; type: binding; settings: pH 7.4
Method: as §5

[4] = target: T4, human FcγR IIa (human CD32a (H167)) (Homo sapiens, UniProt P12318); test: BIAcore affinity for Fc receptor FcγRIIa; type: binding; settings: pH 7.4
T4 sequence (P12318 36-218 limits assumed): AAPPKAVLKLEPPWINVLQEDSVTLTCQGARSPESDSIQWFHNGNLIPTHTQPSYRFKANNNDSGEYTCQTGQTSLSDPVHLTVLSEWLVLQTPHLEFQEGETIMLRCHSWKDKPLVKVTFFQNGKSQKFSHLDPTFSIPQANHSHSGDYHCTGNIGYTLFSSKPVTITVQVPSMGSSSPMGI
Method: as §5

[5] = target: T5, human FcγR IIb (human CD32b) (Homo sapiens, UniProt P31994); test: BIAcore affinity for Fc receptor FcγRIIb; type: binding; settings: pH 7.4
T5 sequence (P31994 43-310): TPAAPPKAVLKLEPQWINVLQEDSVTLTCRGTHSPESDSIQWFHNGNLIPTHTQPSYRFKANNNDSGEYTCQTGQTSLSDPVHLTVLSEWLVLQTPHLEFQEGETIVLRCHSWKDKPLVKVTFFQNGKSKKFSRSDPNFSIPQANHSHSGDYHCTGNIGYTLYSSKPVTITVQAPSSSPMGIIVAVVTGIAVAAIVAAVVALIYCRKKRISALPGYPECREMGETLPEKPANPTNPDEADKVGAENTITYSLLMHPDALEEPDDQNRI
Method: as §5

PC-3-Nectin4(2-4) cells = test: Internalization activity, flow cytometry; type: cell-based
Method: Experiment method was as follows: the target cells at the logarithmic stage of growth were harvested by centrifugation, adjusted to a density of 5×10^5 cells/mL in complete medium (F-12K medium containing 10% FBS and 250 μg/ml G418). 1 mL of the cell suspension obtained was pipetted into EP tubes, i.e., 5×10^5 cells in each, which were then centrifuged. The supernatant was discarded and the cells were washed twice with PBS. […] (as the control group) and 37° C. (as the experiment groups) respectively. After incubation for 2 h, a fluorescently labeled secondary antibody, goat anti human IgG Fc-FITC (purchased from Sigma) was added and incubated for 1 h at 4° C. After the incubation, the fluorescence intensity was measured with a flow cytometer, and the internalization efficiency of each of the samples was calculated by the formula as follows: percent internalization at the time point tx=(1−the fluorescence intensity of the sample at 37° C./the fluorescence intensity of the sample at 4° C.)×100% (tx is the incubation time period x of the sample with the cells).

[6] = cited from earlier work
[7] = target: Nectin-4 on stably transfected PC-3-Nectin4(2-4) cells (UniProt Q96NY8); test: cell-based or functional assay
FcRn [8] = target: T2, FcRn; test: BIAcore (SPR), FcRn captured on His capture chip, pH 6.0, ADC injected
human FcγR I (CD64) [9] = target: T3, human FcγR I (CD64); test: BIAcore (SPR), Fc receptor captured on His capture chip, pH 7.4, ADC injected
[10] = target: human FcγR IIa (human CD32a (H167)) (human) (UniProt P12318); test: as above
[11] = target: human FcγR IIb (human CD32b) (human) (UniProt P31994); test: as above
[12] = target: Nectin-4 on stably transfected PC-3-Nectin4(2-4) cells (UniProt Q96NY8); test: flow cytometry on PC-3-Nectin4(2-4) cells, 2 h at 4° C., anti-human IgG Fc-FITC
[13] = target: recombinant extra-cellular domain of human Nectin-4 protein (human) (UniProt Q96NY8); test: BIAcore (SPR), ADC captured on chip, human Nectin-4 protein injected at 0.391-50 nM

With PADCEV the “TV(D0)” value (MDA-MB-468 cells; 3 mg/kg IV at D0) was 133.1 mm^3, the “T/C (%) (D21)” value (MDA-MB-468 cells; 3 mg/kg IV at D0) was 63% and the “TGI % (D21)” value (MDA-MB-468 cells; 3 mg/kg IV at D0) was 37%. For the same substance, the “TV(D21)” value (MDA-MB-468 cells; 3 mg/kg IV at D0) was 516.4 mm^3, the “PR (D21), partial tumor regression” value (MDA-MB-468 cells; 3 mg/kg IV at D0) was 0 and the “TV(D0)” value (MDA-MB-468 cells; 10 mg/kg IV at D0) was 139.5 mm^3. For the same substance, the “T/C (%) (D21)” value (MDA-MB-468 cells; 10 mg/kg IV at D0) was 28%, the “TGI % (D21)” value (MDA-MB-468 cells; 10 mg/kg IV at D0) was 72% and the “TV(D21)” value (MDA-MB-468 cells; 10 mg/kg IV at D0) was 309.5 mm^3. For the same substance, the “PR (D21), partial tumor regression” value (MDA-MB-468 cells; 10 mg/kg IV at D0) was 0, the “TV(D0)” value (NCI-H322 cells; 3 mg/kg IV at D0, D0 baseline) was 125.1 mm^3 and the “T/C (%) (D21)” value (NCI-H322 cells; 3 mg/kg IV at D0, D21) was 36%. For the same substance, the “TGI % (D21)” value (NCI-H322 cells; 3 mg/kg IV at D0, D21) was 64%, the “TV(D21)” value (NCI-H322 cells; 3 mg/kg IV at D0, D21) was 325.9 mm^3 and the “PR (D21), partial tumor regression” value (NCI-H322 cells; 3 mg/kg IV at D0, D21, 8 animals per group) was 0. The “TV(D0)” value (NCI-H322 cells; 10 mg/kg IV at D0, D0 baseline) was 124.1 mm^3, the “T/C (%) (D21)” value (NCI-H322 cells; 10 mg/kg IV at D0, D21) was −23% and the “TGI % (D21)” value (NCI-H322 cells; 10 mg/kg IV at D0, D21) was 123%. The “TV(D21)” value (NCI-H322 cells; 10 mg/kg IV at D0, D21) was 95.9 mm^3, the “PR (D21), partial tumor regression” value (NCI-H322 cells; 10 mg/kg IV at D0, D21, 8 animals per group) was 7 and the “Average tumor weight (g) (D22)” value (T24/nectin-4 cells; 3 mg/kg IV at D0) was 0.23 g. The “TGI (%) (D22)” value (T24/nectin-4 cells; 3 mg/kg IV at D0) was 90.7%, the “Average weight (g) at the beginning” value (T24/nectin-4 cells; 3 mg/kg IV at D0) was 22.0 g and the “Average weight (g) at the end” value (T24/nectin-4 cells; 3 mg/kg IV at D0) was 23.0 g. The “Average tumor weight (g) (D22)” value (T24/nectin-4 cells; 10 mg/kg IV at D0) was 0.09 g, the “TGI (%) (D22)” value (T24/nectin-4 cells; 10 mg/kg IV at D0) was 96.3% and the “Average weight (g) at the beginning” value (T24/nectin-4 cells; 10 mg/kg IV at D0) was 22.0 g. For the same substance, the “Average weight (g) at the end” value (T24/nectin-4 cells; 10 mg/kg IV at D0) was 23.3 g, the Kd [1] was 4.87 nM and the ka [1] was 1.05e+06 M⁻¹ s⁻¹. It also gave a kd [1] of 0.00512 s⁻¹, a Kd (FcRn [2]) of 513 nM and a Kd (human FcγR I (CD64) [3]) of 12.3 nM. The Kd [4] was 2770 nM, the Kd [5] was 16.3 µM and the “Average fluorescence intensity 4° C.” value (PC-3-Nectin4(2-4) cells; 2 h at 4° C. (control group), average) was 83966. For the same substance, the “Median fluorescence intensity 4° C.” value (PC-3-Nectin4(2-4) cells; 2 h at 4° C. (control group), median) was 78925, the “Average fluorescence intensity 37° C.” value (PC-3-Nectin4(2-4) cells; 2 h at 37° C., average) was 33129 and the “Median fluorescence intensity 37° C.” value (PC-3-Nectin4(2-4) cells; 2 h at 37° C., median) was 25038. The “adverse reactions accompanying treatment” value ([6]; clinical studies) was “fever, skin itching, peripheral neuropathy, dry eyes, neutrocytopenia”, the medium overall survival ([6]; patients receiving chemotherapy and PD-1/PD-L1 inhibitor regimens) was 12.9 months and the “overall survival longer than chemotherapy control group” value ([6]; versus patients receiving chemotherapy in the control group) was 3.9 months.
With “PADCEV (Enfortumab Vedotin, purchased from Seattle Genetics) (antibody)” the Fluorescence intensity at 37° C. (Average), surface antibody left after internalization [7] was 33100, the Fluorescence intensity at 37° C. (Median), surface antibody left after internalization [7] was 25000 and the Kd (FcRn [8]) was 513 nM. For the same substance, the Kd (human FcγR I (CD64) [9]) was 12.3 nM, the Kd [10] was 2770 nM and the Kd [11] was 16.3 µM. It also gave a fluorescence intensity at 4° C. (Average) [12] of 84000, a fluorescence intensity at 4° C. (Median) [12] of 78900 and a Kd [13] of 4.87 nM.
